Reference: patent US7414041B2 (Trustees Of Tufts College, priority 1991, dated 2008)
Like-named read-outs stand apart in the source and are kept apart here.

Key:
[1] = molecular target: T1, TET proteins responsible for tetracycline efflux (Class B tetracycline resistance determinant, strain D1-209) (Escherichia coli, UniProt P02980); experiment: biochemical; set-up: species or system E. coli
T1 construct: Everted vesicles, to which the TET proteins responsible for tetracycline efflux are attached; endogenous in cells; host or cells: E. coli strain D1-209 (everted membrane vesicles)
T1 sequence (P02980 whole entry): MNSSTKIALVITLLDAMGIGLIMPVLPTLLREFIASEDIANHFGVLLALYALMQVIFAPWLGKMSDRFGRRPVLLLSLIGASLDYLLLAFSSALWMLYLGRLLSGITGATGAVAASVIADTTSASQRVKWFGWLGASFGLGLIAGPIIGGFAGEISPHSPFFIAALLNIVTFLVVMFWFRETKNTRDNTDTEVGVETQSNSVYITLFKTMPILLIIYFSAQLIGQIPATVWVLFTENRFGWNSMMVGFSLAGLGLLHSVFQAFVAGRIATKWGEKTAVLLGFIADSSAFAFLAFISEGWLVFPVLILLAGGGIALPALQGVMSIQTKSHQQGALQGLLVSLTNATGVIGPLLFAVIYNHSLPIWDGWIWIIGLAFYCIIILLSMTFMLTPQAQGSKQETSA

E. coli ML308 = experiment: MIC of tetracycline susceptible strains, C5 esters; assay type: cell-based; details: Escherichia coli; E. coli ML308, alone; read-out: MIC
S. aureus 450 = experiment: MIC of tetracycline susceptible strains, C5 esters; assay type: cell-based; details: Staphylococcus aureus; S. aureus 450, alone; read-out: MIC
E. faecalis ATCC 9790 = experiment: MIC of tetracycline susceptible strains, C5 esters; assay type: cell-based; details: Enterococcus faecalis, ATCC9790; E. faecalis ATCC 9790, alone; read-out: MIC
E. coli D1-299 (Tet A) = assay type: cell-based; details: Chart 6A, doxy = number in box (line above), listed as H analog alone;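 note: E. coli at roughly 5×10^5 cells/ml in L broth, analog and doxycycline alone or mixed in two-fold dilutions from 50 to under 1 µg/ml, 18 h at 37 °C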
S. aureus 4250 (Tet K) = experiment: MIC/MLC chart, analog with and without doxycycline; assay type: cell-based; details: for MIC/MLC chart symbol: Chart 6B, doxy = number in box (line above), listed as H analog alone
E. faecalis 158 (Tet L) = experiment: MIC/MLC chart, analog with and without doxycycline; assay type: cell-based; details: Chart 6C, doxy = number in box (line above), listed as H analog alone
E. faecalis 211 (Tet M) = experiment: MIC/MLC chart, analog with and without doxycycline; assay type: cell-based; details: Chart 6D, doxy = number in box (line above), listed as H analog alone;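 note: broth checkerboard of two-fold drug dilutions, alone and mixed with doxycycline, bacteria near 5×10^5 cells/ml, 18 h incubation at 37 °C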

With `C=C1c2cccc(O)c2C(=O)C2=C(O)C3(O)C(=O)C(C(N)=O)=C(O)C(N(C)C)C3C(OC(=O)CC)C12` (stereo not shown) [Cmpd 2, 5 proprionate methacycline] the IC50 [1] was 200 nM, the MIC (E. coli ML308) was 10 µg/mL and the MIC (S. aureus 450) was 1.3 µg/mL. The MIC (E. faecalis ATCC 9790) was 0.8 µg/mL, the MIC/MLC chart symbol (E. coli D1-299 (Tet A); analog 1.56 μg/ml) was “+” and the MIC/MLC chart symbol (E. coli D1-299 (Tet A); analog 3.12 μg/ml) was “+”. For the same molecule, the MIC/MLC chart symbol (E. coli D1-299 (Tet A); analog 3.12 μg/ml, listed as 5-proprionate methacycline) was “◯”, the MIC/MLC chart symbol (E. coli D1-299 (Tet A); analog 6.25 μg/ml) was “+” and the MIC/MLC chart symbol (E. coli D1-299 (Tet A); analog 6.25 μg/ml, listed as 5-proprionate methacycline) was “◯”. The MIC/MLC chart symbol (E. coli D1-299 (Tet A); analog 12.5 μg/ml) was “+”, the MIC/MLC chart symbol (E. coli D1-299 (Tet A); analog 25 μg/ml) was “+” and the MIC/MLC chart symbol (E. coli D1-299 (Tet A); analog 25 μg/ml, listed as 5-proprionate methacycline) was “◯”. For the same molecule, the MIC/MLC chart symbol (E. coli D1-299 (Tet A); analog .195 μg/ml) was “+”, the MIC/MLC chart symbol (E. coli D1-299 (Tet A); analog .39 μg/ml) was “+” and the MIC/MLC chart symbol (E. coli D1-299 (Tet A); analog .78 μg/ml) was “+”. The MIC/MLC chart symbol (S. aureus 4250 (Tet K); analog 1.56 μg/ml) was “↓ and ◯ and +”, the MIC/MLC chart symbol (S. aureus 4250 (Tet K); analog .195 μg/ml) was “↓ and +” and the MIC/MLC chart symbol (S. aureus 4250 (Tet K); analog .39 μg/ml) was “↓ and +”. The MIC/MLC chart symbol (S. aureus 4250 (Tet K); analog .78 μg/ml) was “◯ and +”, the MIC in combination (S. aureus 4250 (Tet K); with 1.55 μg/ml doxycycline (Chart 6B)) was 1.56 µg/mL and the MIC in combination (S. aureus 4250 (Tet K); with 6.23 μg/ml doxycycline (Chart 6B)) was 0.78 µg/mL. For the same molecule, the MIC/MLC chart symbol (E. faecalis 158 (Tet L); analog 1.56 μg/ml) was “↓ and ◯”, the MIC/MLC chart symbol (E. faecalis 158 (Tet L); analog .195 μg/ml) was “◯ and +” and the MIC/MLC chart symbol (E. faecalis 158 (Tet L); analog .39 μg/ml) was “◯ and +”. For the same molecule, the MIC/MLC chart symbol (E. faecalis 158 (Tet L); analog .78 μg/ml) was “◯ and +”, the MIC/MLC chart symbol (E. faecalis 211 (Tet M); analog 1.56 μg/ml) was “◯ and +” and the MIC/MLC chart symbol (E. faecalis 211 (Tet M); analog 3.12 μg/ml) was “+”. The MIC/MLC chart symbol (E. faecalis 211 (Tet M); analog 6.25 μg/ml) was “↓ and +”, the MIC/MLC chart symbol (E. faecalis 211 (Tet M); analog .195 μg/ml) was “+” and the MIC/MLC chart symbol (E. faecalis 211 (Tet M); analog .39 μg/ml) was “+”. The MIC/MLC chart symbol (E. faecalis 211 (Tet M); analog .78 μg/ml) was “+”.
